Measured values reported in ChEMBL document CHEMBL4483862, “Open-source discovery of chemical leads for next-generation chemoprotective antimalarials” (2018).

Test system: Plasmodium berghei
Experiment: Luciferase/luciferin-expressing antifolate-resistant parasites were used to infect a culture of HepG2 cells that were pre-incubated with compounds. Infected hepatocytes emit light due to the luciferase reaction. Assay results are presented as the percent inhibition of light emission compared to control. […]
Type: functional
Conditions: sporozoite; for IC50: read-out: LUCIFERASE INFECTION ASSAY - IC50; for IC90: read-out: LUCIFERASE INFECTION ASSAY - IC90

Row | SMILES | IC50 | IC90
1 | Cc1ccc(-c2nnc(NC(=O)c3cccc(S(=O)(=O)N4CCc5ccccc54)c3)[nH]2)cc1 | 8.49 µM | > 10 µM
2 | N#Cc1cccnc1N1CCN(C(=O)c2cc(-c3ccccc3)nn2-c2ccccc2)CC1 | > 10 µM | > 10 µM
3 | COc1ccc(C(=O)N2CCN(C(c3ccc(F)cc3)c3ccc(F)cc3)CC2)cc1S(=O)(=O)NCCN(C)C | > 10 µM | > 10 µM
4 | Cc1c(C(=O)Nc2nc(CN3CCCC(C)C3)cs2)oc2ccc(Cl)cc12 (stereo not given) | > 10 µM | > 10 µM
5 | CC(OC(=O)c1ccccc1O)C(N)=O (stereo not given) | > 10 µM | > 10 µM
6 | COc1ccc(NC(=O)c2ccc3c(c2)C(=O)N(c2ccccc2Cl)C3=O)cn1 | > 10 µM | > 10 µM
7 | CCCCNC(=O)CN1CCN(C(=O)Cc2c(C)nc3ccccc3c2C)CC1 | > 10 µM | > 10 µM
8 | COc1ccc(Cl)cc1NC(=O)C(C)NCC(c1ccccc1)c1c[nH]c2ccccc12 (stereo not given) | 6.47 µM | > 10 µM
9 | O=C(CSc1ncnc2ccccc12)NN1C(=O)NC(c2ccccc2)(c2ccccc2)C1=O | > 10 µM | > 10 µM
10 | CCc1cccc2c(C(=O)CN3CCC(C(=O)Nc4ccc5c(c4)OCO5)CC3)c[nH]c12 | > 10 µM | > 10 µM
11 | O=C(c1ccc(Cl)cc1)N1CCCC(C(=O)N2CCN(Cc3ccc4c(c3)CCO4)CC2)C1 (stereo not given) | > 10 µM | > 10 µM
12 | CN(CC(=O)N1CCN(C(c2ccc(F)cc2)c2ccc(F)cc2)CC1)C1=NS(=O)(=O)c2ccccc21 | > 10 µM | > 10 µM
13 | CCn1nc(C(=O)OCC(=O)Nc2cc(S(=O)(=O)N3CCCCC3)ccc2Cl)c2ccccc2c1=O | > 10 µM | > 10 µM
14 | Cc1nc2sccc2c(=O)n1NC(=O)c1ccc2ccccc2n1 | > 10 µM | > 10 µM
15 | COc1ccc(N(C)S(=O)(=O)c2cccc(C(=O)Nc3ccc(Br)c(C(F)(F)F)c3)c2)cc1 | > 10 µM | > 10 µM
16 | CCCCCn1nc(C(=O)N2CCN(Cc3nc4ccccc4s3)CC2)c2ccccc2c1=O | > 10 µM | > 10 µM
17 | Cc1nn(Cc2nc3ccccc3s2)c(C)c1S(=O)(=O)N(C)Cc1ccco1 | > 10 µM | > 10 µM
18 | Cc1nc(-c2ccc(CCNC(=O)CN3C(=O)NC(C)(c4ccc5ccccc5c4)C3=O)cc2)cs1 (stereo not given) | > 10 µM | > 10 µM
19 | COc1ccc2cc(C3(C)NC(=O)N(Cc4nc(N)nc(Nc5ccc(F)cc5)n4)C3=O)ccc2c1 (stereo not given) | > 10 µM | > 10 µM
20 | CCCC(=O)Nc1ccc(-c2csc(NC(=O)c3cc(C)oc3C)n2)cc1 | > 10 µM | > 10 µM
21 | O=C(Cn1c(=O)ccn(Cc2ccccc2)c1=O)N1CCC(n2c(=O)[nH]c3ccccc32)CC1 | > 10 µM | > 10 µM
22 | O=C(CN1CCN(C(=O)C23CC4CC(CC(C4)C2)C3)CC1)c1ccc[nH]1 | > 10 µM | > 10 µM
23 | CCOC(=O)c1cnn(-c2ccc(C(=O)N(Cc3ccc(F)cc3)C3CC3)cc2)c1C | > 10 µM | > 10 µM
24 | Cc1nn(CC(=O)NC(C)c2cc3ccccc3o2)c(C)c1S(=O)(=O)N1CCc2ccccc21 (stereo not given) | > 10 µM | > 10 µM
25 | O=S(=O)(c1ccc(Br)s1)N(c1ccc2c(c1)OC1(CCCC1)O2)S(=O)(=O)c1ccc(Br)s1 | 4.98 µM | > 10 µM
26 | CCC(OC(=O)c1cc2ccccc2[nH]1)C(=O)Nc1cc(C)on1 (stereo not given) | > 10 µM | > 10 µM
27 | CCCCC(CC)Cn1c(SCc2nc(N)nc(N)n2)nnc1-c1ccc(Cl)cc1 (stereo not given) | > 10 µM | > 10 µM

Row | SMILES | IC50 | IC90
28 | O=C(Nc1ccccc1)N1CCC(C(=O)N2CCN(C(=O)c3ccccc3Cl)CC2)CC1 | > 10 µM | > 10 µM
29 | CCOC(=O)C1=C(CN2CCN(C(c3ccc(F)cc3)c3ccc(F)cc3)CC2)NC(=O)NC1CC (stereo not given) | > 10 µM | > 10 µM
30 | O=c1[nH]nc(SCc2ccc([N+](=O)[O-])cc2)n1CC1CCCO1 (stereo not given) | > 10 µM | > 10 µM
31 | O=C(CSc1nnc(Nc2ccccc2)s1)Nc1ccccc1N1CCCC1 | > 10 µM | > 10 µM
32 | Cc1cccc2c(=O)n(CC(=O)NCCCCOc3ccc(F)cc3)cnc12 | > 10 µM | > 10 µM
33 | O=C(Cc1csc(N2CCCC2=O)n1)Nc1nc(-c2ccc3c(c2)CCCC3)cs1 | > 10 µM | > 10 µM
34 | c1ccc(-c2csc3nc(CN4CCOCC4)nc(NCc4cnn(-c5ccccc5)c4)c23)cc1 | > 10 µM | > 10 µM
35 | Cc1cc(C)c(CNC(=O)N(C)Cc2cn(-c3ccccc3)nc2-c2ccccc2)c(=O)[nH]1 | > 10 µM | > 10 µM
36 | COc1ccc2c(COC(=O)c3[nH]c(C)c(C(C)=O)c3C)cc(=O)oc2c1 | > 10 µM | > 10 µM
37 | O=C(NC1CCS(=O)(=O)c2ccccc21)C1CCN(c2ncc(C(F)(F)F)cc2Cl)CC1 (stereo not given) | > 10 µM | > 10 µM
38 | Cn1c(CNC(=O)c2cc(-c3ccccc3)c(N3CCOCC3)s2)nc2ccccc21 | > 10 µM | > 10 µM
39 | CCOc1ccc(Oc2ccc(Cl)cc2NCC(=O)N(C)CC(=O)NC(C)C)cc1 | > 10 µM | > 10 µM
40 | CC(=O)NCCc1ccc(C(=O)COC(=O)c2cc(C(C)C)cc(C(C)C)c2O)s1 | > 10 µM | > 10 µM
41 | O=S(=O)(Cc1ccccc1)N1CCN(c2ncnc3sc(-c4ccccc4)cc23)CC1 | > 10 µM | > 10 µM
42 | CC(=O)N(c1nc(/C=C2\NC(=S)NC2=O)cs1)c1c(C)cccc1C | 8.24 µM | > 10 µM
43 | COc1ccc(OC)c(C(C)Nc2ncnc3sccc23)c1 (stereo not given) | 4.28 µM | > 10 µM
44 | COc1ccc(OC)c2c1CN(c1cnn(-c3nc4ccccc4[nH]3)c(=O)c1Cl)CC2O (stereo not given) | > 10 µM | > 10 µM
45 | CCOc1ccc(-c2nnc(SCC(=O)Nc3ccccc3C(=O)NCc3ccccc3)o2)cc1 | 4.44 µM | > 10 µM
46 | O=C(NCc1cn2ccccc2n1)c1cccc(S(=O)(=O)N2CCc3ccccc3C2)c1 | > 10 µM | > 10 µM
47 | COc1ccc(-c2noc(CCCCCNC(=O)c3ccc(-n4cnnn4)cc3)n2)cc1 | > 10 µM | > 10 µM
48 | Cn1cc(/C=C/C(=O)Nc2nc(-c3ccc4c(c3)OCCO4)cs2)cn1 | 9.99 µM | > 10 µM
49 | CN(Cc1nc2ccccc2s1)C(=O)c1cc(-c2ccccc2)c(N2CCOCC2)s1 | > 10 µM | > 10 µM
50 | O=C(CSc1ccc(S(=O)(=O)N2CCOCC2)cn1)NC(c1ccccc1)c1cccs1 (stereo not given) | > 10 µM | > 10 µM
51 | COc1cc(C(=O)OC(C)C(=O)Nc2sccc2C(N)=O)ccc1C (stereo not given) | > 10 µM | > 10 µM
52 | CCOc1ccccc1NC(=O)C(c1ccccc1)N1CCC(n2c(=O)[nH]c3ccccc32)CC1 (stereo not given) | 5.29 µM | > 10 µM
53 | CCCCn1nnnc1CSc1nnc(-c2ccccc2F)n1Cc1ccccc1 | > 10 µM | > 10 µM
54 | Cc1cnc(NC(=O)CSCc2cccs2)s1 | > 10 µM | > 10 µM

Row | SMILES | IC50 | IC90
55 | O=C(CN1CCC(NC(=O)c2cn(-c3ccccc3)nc2-c2cccs2)CC1)Nc1ccccc1 | > 10 µM | > 10 µM
56 | Cc1ccc(NC(=S)N/N=C2\C(=O)Nc3c(C)cc(C)cc32)c(C)c1 | 3.03 µM | 3.68 µM
57 | O=C(Nc1cccc(S(=O)(=O)NC2=NCCC2)c1)c1ccc2nccnc2c1 | > 10 µM | > 10 µM
58 | Cn1cc(Br)cc1C(=O)Nc1ccc2c(c1)OCCO2 | > 10 µM | > 10 µM
59 | N#Cc1ccc(C=C2C(=O)Nc3ccccc3NC2=O)cc1 | > 10 µM | > 10 µM
60 | O=C(Nc1nc2c(s1)CCCC2)c1ccc(Nc2ccccc2)c([N+](=O)[O-])c1 | > 10 µM | > 10 µM
61 | Cc1cc(C)c2c(C)c(C(=O)Nc3cc(S(=O)(=O)N4CCCCC4)ccc3N(C)C)sc2n1 | 6.67 µM | > 10 µM
62 | CC(CCc1ccccc1)NC(=O)CN1CCN(C/C=C/c2ccccc2)CC1 (stereo not given) | > 10 µM | > 10 µM
63 | COc1ccc(S(=O)(=O)N(C)CC2COc3ccccc3O2)cc1 (stereo not given) | > 10 µM | > 10 µM
64 | Cc1ccc(-c2csc3ncn(CC(=O)c4cc(C)n(C5CCS(=O)(=O)C5)c4C)c(=O)c23)cc1 (stereo not given) | > 10 µM | > 10 µM
65 | CC(=O)Nc1ccccc1OCC(=O)NC(=O)NC(C)C1CC2CCC1C2 (stereo not given) | 5.71 µM | > 10 µM
66 | CN1CCc2nc(NC(=O)C3CCN(c4ncc(C(F)(F)F)cc4Cl)CC3)sc2C1 | > 10 µM | > 10 µM
67 | COC(=O)c1cc(Br)ccc1NC(=O)c1cccc(S(=O)(=O)N(Cc2ccccc2)c2ccccc2Cl)c1 | > 10 µM | > 10 µM
68 | COc1ccc(-c2cc(C(=O)NNC(=O)CC(C)C)[nH]n2)cc1 | > 10 µM | > 10 µM
69 | CC(=O)Nc1cccc(C(=O)Nn2cnc3ccccc3c2=O)c1 | > 10 µM | > 10 µM
70 | Cc1cc2nnc(SC(C)C(=O)Nc3ccc([N+](=O)[O-])cc3C(F)(F)F)n2c2ccccc12 (stereo not given) | > 10 µM | > 10 µM
71 | CC(c1nc(=O)c2c(-c3ccccc3)csc2[nH]1)N(C)Cc1ccccc1N1CCCC1 (stereo not given) | > 10 µM | > 10 µM
72 | O=C(COc1cc(N2CCCC2=O)ccc1[N+](=O)[O-])NCc1ccco1 | > 10 µM | > 10 µM
73 | COC(=O)c1cc(OC)c(OC)cc1NC(=O)c1ccc(-c2cccc(Br)c2)nc1C | > 10 µM | > 10 µM
74 | CCN(CC)S(=O)(=O)c1ccc2[nH]c(=O)cc(C(=O)Nc3cc(Cl)c(OC)cc3OC)c2c1 | > 10 µM | > 10 µM
75 | CCCCN(C(=O)CSc1nnc(-c2ccc(OC)cc2)n1C(C)C)c1c(N)n(CCCC)c(=O)[nH]c1=O | > 10 µM | > 10 µM
76 | Cc1nc(SCC(=O)c2ccc(N3CCCC3=O)cc2)c2c(C)c(C)sc2n1 | 7.98 µM | > 10 µM
77 | COc1ccc2cc(C(=O)NNC(=O)c3ccccn3)c(C)nc2c1 | 8.4 µM | > 10 µM
78 | O=C(CSc1nncn1C1CC1)Nc1sc2c(c1C(=O)Nc1ccc(Cl)cc1)CCCC2 | > 10 µM | > 10 µM
79 | CC1(c2ccc3ccccc3c2)NC(=O)N(CC(=O)NC(CN2CCOCC2)c2ccccc2)C1=O (stereo not given) | > 10 µM | > 10 µM
80 | O=C(NNC(=O)C12CC3CC(CC(C3)C1)C2)c1nn(-c2ccccc2)cc1O | 3.26 µM | 3.89 µM
